Data from US5145783A, “Glyphosate-tolerant 5-endolpyruvyl-3-phosphoshikimate synthase” (Monsanto Company, priority 1990, dated 1992).
“Also recorded” adds a separate entry of the source.

Experiments:
[1] = target: T1, Arabidopsis EPSP synthase with the alanine for glycine substitution at position 101 (Arabidopsis thaliana, UniProt P05466, G177A); assay: EPSP synthase activity in protein extracts of Brassica napus calli transformed with pMON600; type: biochemical
T1 construct: the expressed Arabidopsis EPSP synthase would include the alanine for glycine substitution at position 101 of the mature enzyme; expressed in transfected cells; host or cells: Brassica napus calli transformed by Agrobacterium harboring pMON600, protein extract
T1 sequence (P05466 77-520 G177A): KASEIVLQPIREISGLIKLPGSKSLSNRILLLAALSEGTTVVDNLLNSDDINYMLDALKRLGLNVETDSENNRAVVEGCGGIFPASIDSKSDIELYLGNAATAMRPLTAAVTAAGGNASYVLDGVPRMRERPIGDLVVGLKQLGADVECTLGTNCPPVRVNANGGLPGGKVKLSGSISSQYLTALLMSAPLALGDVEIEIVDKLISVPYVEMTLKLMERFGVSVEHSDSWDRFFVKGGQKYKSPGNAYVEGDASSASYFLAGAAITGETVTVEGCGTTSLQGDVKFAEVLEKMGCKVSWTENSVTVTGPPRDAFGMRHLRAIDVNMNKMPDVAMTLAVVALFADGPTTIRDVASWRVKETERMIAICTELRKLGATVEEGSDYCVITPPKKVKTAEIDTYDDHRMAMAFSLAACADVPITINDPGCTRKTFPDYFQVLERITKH
Protocol: The Agrobacterium harboring the pMON600 plasmid was used to transform explants of Brassica napus. Three gentamicin resistant calli were obtained. […] Proteins were extracted from samples of the calli and were assayed for EPSP synthase activity. All three of the calli contained EPSP synthase activity that was resistant to 0.5 mM glyphosate.
(§1) The EPSP synthase in the extracts was further characterized by titrating the resistance to glyphosate.

[2] = target: T2, glyphosate-tolerant petunia EPSP synthase (alanine for glycine at position 101) (Petunia hybrida, UniProt P11043, G173A); assay: EPSP synthase inhibition, petunia enzyme carrying the alanine for glycine substitution; type: biochemical
T2 construct: made in house; host or cells: E. coli (overproducing), extract
T2 sequence (P11043 73-516 G173A): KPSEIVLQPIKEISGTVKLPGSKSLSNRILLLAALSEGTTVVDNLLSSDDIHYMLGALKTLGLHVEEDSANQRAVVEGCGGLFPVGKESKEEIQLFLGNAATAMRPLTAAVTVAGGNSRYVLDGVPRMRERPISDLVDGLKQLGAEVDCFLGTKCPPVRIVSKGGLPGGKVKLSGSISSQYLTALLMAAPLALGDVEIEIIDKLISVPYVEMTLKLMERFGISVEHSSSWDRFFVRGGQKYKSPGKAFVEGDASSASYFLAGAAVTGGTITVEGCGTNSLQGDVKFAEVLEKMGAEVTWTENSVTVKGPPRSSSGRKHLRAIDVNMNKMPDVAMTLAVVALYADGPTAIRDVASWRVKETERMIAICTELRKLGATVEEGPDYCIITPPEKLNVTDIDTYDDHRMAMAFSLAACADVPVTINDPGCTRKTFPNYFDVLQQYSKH
Text: as §1

[3] = target: T3, wild-type maize EPSP synthase (Zea mays, UniProt A0A1D6NVZ6); assay: EPSP synthase activity of in vitro translation product of pMON9951; type: biochemical; settings: 1.0 mM glyphosate
T3 sequence (A0A1D6NVZ6 1-506): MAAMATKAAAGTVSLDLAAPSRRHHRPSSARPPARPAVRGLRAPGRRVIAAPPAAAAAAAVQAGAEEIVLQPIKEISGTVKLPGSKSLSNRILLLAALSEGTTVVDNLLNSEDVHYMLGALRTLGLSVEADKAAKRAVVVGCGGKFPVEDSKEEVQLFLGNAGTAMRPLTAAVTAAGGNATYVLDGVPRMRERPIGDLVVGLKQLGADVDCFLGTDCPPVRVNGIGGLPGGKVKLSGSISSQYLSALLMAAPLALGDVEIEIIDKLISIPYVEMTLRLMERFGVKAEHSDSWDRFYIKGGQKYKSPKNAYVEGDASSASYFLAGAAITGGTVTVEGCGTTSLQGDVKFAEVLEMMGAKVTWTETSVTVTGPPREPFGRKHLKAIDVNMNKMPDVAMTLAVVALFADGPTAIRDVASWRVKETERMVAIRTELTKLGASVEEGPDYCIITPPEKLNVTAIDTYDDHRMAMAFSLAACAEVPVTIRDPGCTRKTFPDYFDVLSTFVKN
Protocol: (§2) The linearized plasmid DNA was transcribed in vitro with T7 polymerase essentially as described by Krieg et al. 1984. The standard reaction buffer contained 40 mM Tris-HCl (pH 7.9), 6 mM MgCl2, 10 mM dithiothreitol, 2 mM spermidine, 80 U RNAsin ribuonuclease inhibitor, 0.5 mM each of ATP, GTP, CTP and UTP, in a final reaction volume of 100 μl. The final RNA pellet was resuspended in 20 μl of sterile water and stored at -80° C. A standard translation reaction contained 100 μl of nuclease-treated rabbit reticulocyte lysate, 5.7 μl of a 19-amino acid mixture (minus methionine at 1 mM each, 5.7 μl of RNA (total RNA transcripts derived from 0.63 μg of plasmid DNA), 16 μl RNAsin (20U/μl) ribonuclease inhibitor, and 58.3 μl of [^35 S] methionine (14-15 mCi/ml). The in vitro translation products were stored frozen at -80 ° C.
(§3) The products of the in vitro translation were then assayed for EPSP synthase activity as described herein.

[4] = test system: tobacco plants transformed with wild-type EPSP synthase gene; assay: Relative effect of glyphosate spray on transformed tobacco, wild-type gene; type: in vivo, Nicotiana tabacam CV H425; parameters: key: 0 = total kill, 10 = normal unsprayed plant; settings: WT
Text: A culture of A. tumefaciens cells containing pMON567/pGV3111-SE was contacted with leaf disks taken from tobacco plants (Nicotiana tabacam CV H425) as described by Horsch (1985). The Agrobacterium cells inserted the mutant EPSP synthase gene into the chromosomes of the plant cells. Plant cells resistant to kanamycin were selected and regenerated into differentiated plants by the procedure of Horsch (1985).
Progeny of these plants were propagated and grown to a rosette diameter of about 10 cm corresponding to a plant age of about four weeks. The plants were sprayed with glyphosate at levels corresponding to 2.0 and 3.6 pounds acid equiv./acre. […] The effect was translated to a numerical scale of 0-10 in which 0 represents total kill and 10 is the normal, unsprayed plant. […] The values represent the best transformant for both wild-type EPSP synthase and glyphosate-tolerant EPSP synthase genes.

[5] = target: T4, mutant maize pre-EPSP synthase (alanine for second glycine) (Zea mays, UniProt A0A1D6NVZ6, G163A); assay: EPSP synthase activity of in vitro translation product of pMON9960; type: biochemical
T4 construct: full-length cDNA pre-enzyme with chloroplast transit peptide, T7 in vitro transcription, rabbit reticulocyte lysate translation
T4 sequence (A0A1D6NVZ6 entry or part of it G163A): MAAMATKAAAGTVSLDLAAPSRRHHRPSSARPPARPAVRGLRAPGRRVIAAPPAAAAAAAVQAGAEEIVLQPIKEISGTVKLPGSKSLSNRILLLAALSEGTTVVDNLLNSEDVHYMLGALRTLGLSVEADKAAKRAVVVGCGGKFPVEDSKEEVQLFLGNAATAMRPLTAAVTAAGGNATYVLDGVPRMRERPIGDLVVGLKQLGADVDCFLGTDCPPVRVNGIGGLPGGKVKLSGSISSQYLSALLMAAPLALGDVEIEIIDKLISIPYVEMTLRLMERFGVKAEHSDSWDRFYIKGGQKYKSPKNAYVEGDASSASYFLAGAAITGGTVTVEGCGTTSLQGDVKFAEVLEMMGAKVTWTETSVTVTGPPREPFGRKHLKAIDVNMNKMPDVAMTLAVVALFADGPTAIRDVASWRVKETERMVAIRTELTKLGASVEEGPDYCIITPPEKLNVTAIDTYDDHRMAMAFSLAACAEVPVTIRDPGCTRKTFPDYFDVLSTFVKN
Protocol: as §2, §3

[6] = test system: petunia plants transformed with chimeric EPSP synthase gene (pMON546); assay: Plant response to glyphosate spraying, transformed plants; type: in vivo; settings: 0.8 #/acre acid equivalent, isopropylamine salt sprayed
Protocol: Four individual representative transgenic seedlings were selected, grown and tested in the testing procedure described below, along with four individual non-transformed (wild-type) petunia seedlings.
The plants were grown in a growth medium in a growth chamber at 26° C. with 12 hours of light per day. The plants were fertilized weekly with a soluble fertilizer and watered as needed. The plants were sprayed at a uniform and reproducible delivery rate of herbicide by use of an automated track sprayer. The glyphosate solution used was measured as pounds of glyphosate acid equivalents per acre, mixed as the glyphosate isopropylamine salt, with an ionic surfactant.
Four individual wild-type (non-transformed) petunia plants were selected for use as control plants. Four individual transformed plants containing the pMON546 vector were selected by kanamycin resistance as described in Horsch et al. (1985).
The control plants and the transformed plants were sprayed with the isopropylamine salt of glyphosate at the application level listed in Table 2 below; the experimental results obtained are also summarized in Table 2.

## O=C(O)CNCP(=O)(O)O [glyphosate, N-phosphonomethylglycine]
[1]
  IC50: 7.5 mM
[1]; 0.5 mM glyphosate, all three calli
  EPSP synthase activity in the presence of glyphosate: resistant
[2]
  IC50: 16 mM
[3]
  EPSP synthase activity in the presence of glyphosate: no activity was detected
[4]; 0.4 Pounds/Acre, Day 7, best transformant
  Relative effect of glyphosate (0 total kill, 10 no effect): 6.0
[4]; 0.4 Pounds/Acre, Day 14, best transformant
  Relative effect of glyphosate (0 total kill, 10 no effect): 7.0
[4]; 0.4 Pounds/Acre, Day 28, best transformant
  Relative effect of glyphosate (0 total kill, 10 no effect): 9.0
[4]; 2.0 Pounds/Acre, Day 7, best transformant
  Relative effect of glyphosate (0 total kill, 10 no effect): 5.0
[4]; 2.0 Pounds/Acre, Day 14, best transformant
  Relative effect of glyphosate (0 total kill, 10 no effect): 1.8
[4]; 2.0 Pounds/Acre, Day 28, best transformant
  Relative effect of glyphosate (0 total kill, 10 no effect): 0.8
[4]; 3.6 Pounds/Acre, Day 7, best transformant
  Relative effect of glyphosate (0 total kill, 10 no effect): 5.0
[4]; 3.6 Pounds/Acre, Day 14, best transformant
  Relative effect of glyphosate (0 total kill, 10 no effect): 1.7
[4]; 3.6 Pounds/Acre, Day 28, best transformant
  Relative effect of glyphosate (0 total kill, 10 no effect): 0.8
[5]; 1 mM glyphosate, product of pMON9960
  inhibition of EPSP synthase activity: only slightly inhibited
[5]; 100 mM glyphosate, product of pMON9960
  EPSP synthase activity in the presence of glyphosate: still showing detectable activity
[5]; read-out: inhibition of EPSP synthase activity
  inhibition at 10000 µM: 25%
[6]
  Visual Appearance: growing well; also recorded: healthy and viable
